Assay results: patent publication EP0199840B1, “Use of a diamine for the preparation of a softener for erythrocytes” (Barnikol, Wolfgang, Prof. Dr.Dr., priority 1985, dated 1986)

Tested on: Erythrozyten
Experiment: Erythrocyte filtration test: specific filtration time (FZsp) of an 8% suspension of purified erythrocytes through 5 µm polycarbonate (Nuclepore) membrane filters
Type: cell-based, gesunden Probanden
Details: for Wirkung auf FZsp compared with Ausführungsbeispiel 1 (result in words): carried out as in Ausführungsbeispiel 1 (0 to 100 mmol/I; 1,5 Stunden; pH=7,4; 22°C; there FZsp reduced to 30% at 50 mmol/I)
Description: Es wurde nun gefunden, daß es, um die Erythrozyten-weichmachende Wirkung einer Substanz mit Hilfe eines Filtrationstests festzustellen, unerlässlich ist, die Erythrozyten quantitativ von den andern Blutzellen abzutrennen, weil auch sehr geringe Zellverunreinigungen den Test übermä-βig stark stören Daher wurde ein Testverfahren einschließlich eines Reinigungsverfahrens mit Hilfe der Dichtezentrifugation in synthetischem Polysaccharid (Ficoll® 400, Deutsche Pharmazia, Freiburg, Bundesrepublik Deutschland) erarbeitet; als Literaturstelle sei hingewiesen auf: Barnikol et al., Funkt, Biol. Med. 1 (1982), 242-244.
Im Prinzip wird hierbei die sogenannte spezifische Filtrierzeit (FZsp) einer 8%igen Erythrozytensuspension an 5 um Polycarbonat (Nuclepore-^@) Membran-filtern bestimmt. Das Meßverfahren wurde insofern gegenüber der ursprünglichen Vorschrift modifiziert, als nunmehr lediglich die Anfangsgeschwindigkeit gemessen wird, also je nach Dauer variable Tropfenzahlen vermessen werden, sowie der Zeitbedarf für eine bestimmte Tropfenzahl, nämlich 10, bereichnet wurde.
Es gilt die Formel [formula] wobei: • t=Filtrierzeit für 10 Tropfen der Suspension • to=Filtrierzeit für 10 Tropfen des Suspensionsmittels • FZsp ist ein Maß für die Steifigkeit.
Erthrozyten von mehreren gesunden Probanden werden wie oben angegeben (Barnikol et al., 1982) präpariert und eine 8 Vol.-%ige Zellsuspension hergestellt unter Zugabe von Glukose (100 mg/dl). Den Suspensionen werden steigende Mengen von DMAEA von 0 bis 100 mmol/I zugesetzt. Die Proben werden 1,5 Stunden unter langsamen Schwenken belassen bei pH=7,4 und 22°C und danach FZsp gemessen: Bei 50 mmol/I wird FZsp auf 30% des Ausgangswertes verringert.

**Q.** Which “Wirkung auf FZsp compared with Ausführungsbeispiel 1 (result in words)” value does the source give for CN(C)CCN(C)C [TMEDA, Tetramethylethylendiamin] here?
**A.** The value was “gleiche Wirkung”.

**Q.** For CN(C)CCN [DMAEA, Dimethylaminoethylamin], which activity at 50000 µM (Homo sapiens, Erythrocyte, 1.5 h, pH 7.4, 50 mmol/I, 8 Vol.-%ige Zellsuspension with Glukose (100 mg/dl), 1,5 Stunden, pH=7,4, 22°C, read-out: FZsp (spezifische Filtrierzeit), % des Ausgangswertes) is on record?
**A.** Its activity at 50000 µM is 30%.

**Q.** Which “Wirkung auf FZsp compared with Ausführungsbeispiel 1 (result in words)” value does the source give for CCN(CC)CCN(CC)CC [TEEDA, Tetraethylethylendiamin] here?
**A.** Its value is “gleich Wirkung”.

**Q.** For CC(=O)CCCCn1c(=O)c2c(ncn2C)n(C)c1=O [Pentoxifyllin, 3,7-Dimethyl-1-(5-oxohexyl)-xanthin, reference compound], which “Wirkung auf FZsp (result in words)” value (0,1 mmol/1 to 15 mmol/I, 22°C, pH=7,40, FZsp not significantly reduced) is on record?
**A.** The value was “unwirksam”.
